According to patent US20240269337A1, “METHOD AND SYSTEM FOR COATING FILTER MEDIA” (MOLECULAR PLASMA GROUP SA, priority 2021, published 2024):
Where two headings read alike, the source gives them in different places.

Test system: Bacteriophage MS2
Type: cell-based
Settings: for LOG Reduction: plasma coating of precursor on Tyvek substrate, (LOD) = limit of detection

For `CCCCCCCCCCCCCCCCCC[N+](C)(C)CCC[Si](OC)(OC)OC.[Cl-]` [SiQAM, Dimethyloctadecyl[3-(trimethoxysilyl)propyl] ammonium chloride], the “LOG Reduction” value was 1.56 log.
For `C=CC(=O)NCCC[N+](C)(C)C.[Cl-]` [APTAC, (3-Acrylamidopropyl)trimethylammonium chloride], the “LOG Reduction” value was 2.1 log.
In the case of Citric Acid, the “Avg. MS2 (log red)” value (Filter media sample, 6 passes) is reported as 2.15 log red, the “MS2 neutralized (%)” value (Filter media sample, 6 passes) is reported as 99.29% and the “Avg. MS2 (log red)” value (Filter media sample, 10 passes) is reported as 2.72 log red. The “MS2 neutralized (%)” value (Filter media sample, 10 passes) was 99.81%, the “Avg. MS2 (log red)” value (Filter media sample, 20 passes) was 2.46 log red and the “MS2 neutralized (%)” value (Filter media sample, 20 passes) was 99.65%. The “Avg. MS2 (log red)” value (Outer wave sample, 6 passes) was 2.13 log red, the “MS2 neutralized (%)” value (Outer wave sample, 6 passes) was 99.26% and the “Avg. MS2 (log red)” value (Outer wave sample, 10 passes) was 1.96 log red. For the same molecule, the “MS2 neutralized (%)” value (Outer wave sample, 10 passes) was 98.90%, the “Avg. MS2 (log red)” value (Outer wave sample, 20 passes) was 2.71 log red and the “MS2 neutralized (%)” value (Outer wave sample, 20 passes) was 99.81%. For the same molecule, the “LOG Reduction” value was >5.0 (LOD) log.
For “Benzalkonium chloride [reference compound]”, the “LOG Reduction” value was >3.8 (LOD) log.
